Key:
Assay in all cases: relative viability (nuclei count vs DMSO), 5 days (fraction); higher = more cells survive
Tivantinib + Navitoclax = compound: O=C1NC(=O)[C@@H](c2cn3c4c(cccc24)CCC3)[C@@H]1c1c[nH]c2ccccc12 [Tivantinib] + CC1(C)CCC(c2ccc(Cl)cc2)=C(CN2CCN(c3ccc(C(=O)NS(=O)(=O)c4ccc(N[C@H](CCN5CCOCC5)CSc5ccccc5)c(S(=O)(=O)C(F)(F)F)c4)cc3)CC2)C1 [Navitoclax] (partner 0.5 µM)
Outline: (§1)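 Five library-drug doses in √10 steps were combined with a fixed anchor-drug dose, or a single drug was given alone, by pin tool to lung cancer cell lines in 1536-well plates the day after seeding. Nuclei were stained and counted after 5 days. Relative viability is the nuclei count in treated wells over that in vehicle wells, taken as the median of duplicate plates.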

Crenolanib + Phenformin = compound: CC1(COc2ccc3c(c2)ncn3-c2ccc3cccc(N4CCC(N)CC4)c3n2)COC1 [Crenolanib] + N=C(N)NC(=N)NCCc1ccccc1 [Phenformin] (partner 250 µM)
Outline: as §1

Crenolanib + Decitabine = compound: CC1(COc2ccc3c(c2)ncn3-c2ccc3cccc(N4CCC(N)CC4)c3n2)COC1 [Crenolanib] + Nc1ncn([C@H]2C[C@H](O)[C@@H](CO)O2)c(=O)n1 [Decitabine] (partner 2 µM)
Outline: as §1

Crenolanib + Trametinib = compound: CC1(COc2ccc3c(c2)ncn3-c2ccc3cccc(N4CCC(N)CC4)c3n2)COC1 [Crenolanib] + CC(=O)Nc1cccc(-n2c(=O)n(C3CC3)c(=O)c3c(Nc4ccc(I)cc4F)n(C)c(=O)c(C)c32)c1 [Trametinib] (partner 0.02 µM)
Outline: as §1

For EBC-1, the relative viability (Tivantinib + Navitoclax; first compound 0.01 µM) was 0.505, the relative viability (Tivantinib + Navitoclax; first compound 0.03162 µM) was 0.46 and the relative viability (Tivantinib + Navitoclax; first compound 0.1 µM) was 0.414. The relative viability (Tivantinib + Navitoclax; first compound 0.3162 µM) was 0.293.
With NCI-H1563 the relative viability (Crenolanib + Phenformin; first compound 0.01 µM) was 0.615, the relative viability (Crenolanib + Phenformin; first compound 0.03162 µM) was 0.66 and the relative viability (Crenolanib + Phenformin; first compound 0.1 µM) was 0.699. For the same cell line, the relative viability (Crenolanib + Phenformin; first compound 0.3162 µM) was 0.607 and the relative viability (Crenolanib + Phenformin; first compound 1 µM) was 0.672.
Cell Line NCI-H2342 has a relative viability (Crenolanib + Decitabine; first compound 0.01 µM) of 0.766, a relative viability (Crenolanib + Decitabine; first compound 0.03162 µM) of 0.649 and a relative viability (Crenolanib + Decitabine; first compound 0.1 µM) of 0.742. For the same cell line, the relative viability (Crenolanib + Decitabine; first compound 0.3162 µM) was 0.903, the relative viability (Crenolanib + Decitabine; first compound 1 µM) was 0.694 and the relative viability (Crenolanib + Phenformin; first compound 0.01 µM) was 0.724. For the same cell line, the relative viability (Crenolanib + Phenformin; first compound 0.03162 µM) was 0.525, the relative viability (Crenolanib + Phenformin; first compound 0.1 µM) was 0.556 and the relative viability (Crenolanib + Phenformin; first compound 0.3162 µM) was 0.652. It also gave a relative viability (Crenolanib + Phenformin; first compound 1 µM) of 0.64, a relative viability (Crenolanib + Trametinib; first compound 0.01 µM) of 0.502 and a relative viability (Crenolanib + Trametinib; first compound 0.03162 µM) of 0.822. For the same cell line, the relative viability (Crenolanib + Trametinib; first compound 0.1 µM) was 0.935, the relative viability (Crenolanib + Trametinib; first compound 0.3162 µM) was 0.887 and the relative viability (Crenolanib + Trametinib; first compound 1 µM) was 0.904.
With NCI-H661 the relative viability (Crenolanib + Decitabine; first compound 0.01 µM) was 0.534, the relative viability (Crenolanib + Decitabine; first compound 0.03162 µM) was 0.514 and the relative viability (Crenolanib + Decitabine; first compound 0.1 µM) was 0.544. The relative viability (Crenolanib + Decitabine; first compound 0.3162 µM) was 0.555, the relative viability (Crenolanib + Decitabine; first compound 1 µM) was 0.541 and the relative viability (Crenolanib + Phenformin; first compound 0.01 µM) was 0.284. For the same cell line, the relative viability (Crenolanib + Phenformin; first compound 0.03162 µM) was 0.275, the relative viability (Crenolanib + Phenformin; first compound 0.1 µM) was 0.289 and the relative viability (Crenolanib + Phenformin; first compound 0.3162 µM) was 0.283. For the same cell line, the relative viability (Crenolanib + Phenformin; first compound 1 µM) was 0.289, the relative viability (Crenolanib + Trametinib; first compound 0.01 µM) was 0.57 and the relative viability (Crenolanib + Trametinib; first compound 0.03162 µM) was 0.55. The relative viability (Crenolanib + Trametinib; first compound 0.1 µM) was 0.528, the relative viability (Crenolanib + Trametinib; first compound 0.3162 µM) was 0.603 and the relative viability (Crenolanib + Trametinib; first compound 1 µM) was 0.494.
Cell Line NCI-H650 has a relative viability (Crenolanib + Decitabine; first compound 0.01 µM) of 0.295, a relative viability (Crenolanib + Decitabine; first compound 0.03162 µM) of 0.306 and a relative viability (Crenolanib + Decitabine; first compound 0.1 µM) of 0.281. The relative viability (Crenolanib + Decitabine; first compound 0.3162 µM) was 0.295, the relative viability (Crenolanib + Decitabine; first compound 1 µM) was 0.33 and the relative viability (Crenolanib + Phenformin; first compound 0.01 µM) was 0.468. The relative viability (Crenolanib + Phenformin; first compound 0.03162 µM) was 0.405, the relative viability (Crenolanib + Phenformin; first compound 0.1 µM) was 0.48 and the relative viability (Crenolanib + Phenformin; first compound 0.3162 µM) was 0.445. For the same cell line, the relative viability (Crenolanib + Phenformin; first compound 1 µM) was 0.445, the relative viability (Crenolanib + Trametinib; first compound 0.01 µM) was 1.01 and the relative viability (Crenolanib + Trametinib; first compound 0.03162 µM) was 1.01. It also gave a relative viability (Crenolanib + Trametinib; first compound 0.1 µM) of 0.976, a relative viability (Crenolanib + Trametinib; first compound 0.3162 µM) of 1.05 and a relative viability (Crenolanib + Trametinib; first compound 1 µM) of 0.992.
A549 was tested, and the relative viability (Crenolanib + Decitabine; first compound 0.01 µM) was 0.208, the relative viability (Crenolanib + Decitabine; first compound 0.03162 µM) was 0.258 and the relative viability (Crenolanib + Decitabine; first compound 0.1 µM) was 0.282. For the same cell line, the relative viability (Crenolanib + Decitabine; first compound 0.3162 µM) was 0.221, the relative viability (Crenolanib + Decitabine; first compound 1 µM) was 0.293 and the relative viability (Crenolanib + Phenformin; first compound 0.01 µM) was 0.193. For the same cell line, the relative viability (Crenolanib + Phenformin; first compound 0.03162 µM) was 0.185, the relative viability (Crenolanib + Phenformin; first compound 0.1 µM) was 0.165 and the relative viability (Crenolanib + Phenformin; first compound 0.3162 µM) was 0.103. For the same cell line, the relative viability (Crenolanib + Phenformin; first compound 1 µM) was 0.145, the relative viability (Tivantinib + Navitoclax; first compound 0.01 µM) was 1.28 and the relative viability (Tivantinib + Navitoclax; first compound 0.03162 µM) was 1.15. The relative viability (Tivantinib + Navitoclax; first compound 0.1 µM) was 1.19 and the relative viability (Tivantinib + Navitoclax; first compound 0.3162 µM) was 1.2.
In the case of NCI-H358, the relative viability (Crenolanib + Decitabine; first compound 0.01 µM) is reported as 0.17, the relative viability (Crenolanib + Decitabine; first compound 0.03162 µM) is reported as 0.194 and the relative viability (Crenolanib + Decitabine; first compound 0.1 µM) is reported as 0.233. The relative viability (Crenolanib + Decitabine; first compound 0.3162 µM) was 0.21, the relative viability (Crenolanib + Decitabine; first compound 1 µM) was 0.188 and the relative viability (Crenolanib + Phenformin; first compound 0.01 µM) was 0.372. It also gave a relative viability (Crenolanib + Phenformin; first compound 0.03162 µM) of 0.321, a relative viability (Crenolanib + Phenformin; first compound 0.1 µM) of 0.3 and a relative viability (Crenolanib + Phenformin; first compound 0.3162 µM) of 0.292. The relative viability (Crenolanib + Phenformin; first compound 1 µM) was 0.239, the relative viability (Crenolanib + Trametinib; first compound 0.01 µM) was 0.169 and the relative viability (Crenolanib + Trametinib; first compound 0.03162 µM) was 0.11. It also gave a relative viability (Crenolanib + Trametinib; first compound 0.1 µM) of 0.166, a relative viability (Crenolanib + Trametinib; first compound 0.3162 µM) of 0.133 and a relative viability (Crenolanib + Trametinib; first compound 1 µM) of 0.112.
With NCI-H2228 the relative viability (Crenolanib + Phenformin; first compound 0.01 µM) was 0.313, the relative viability (Crenolanib + Phenformin; first compound 0.03162 µM) was 0.487 and the relative viability (Crenolanib + Phenformin; first compound 0.1 µM) was 0.324. The relative viability (Crenolanib + Phenformin; first compound 0.3162 µM) was 0.388, the relative viability (Crenolanib + Phenformin; first compound 1 µM) was 0.317 and the relative viability (Crenolanib + Trametinib; first compound 0.01 µM) was 0.442. It also gave a relative viability (Crenolanib + Trametinib; first compound 0.03162 µM) of 0.544, a relative viability (Crenolanib + Trametinib; first compound 0.1 µM) of 0.342 and a relative viability (Crenolanib + Trametinib; first compound 0.3162 µM) of 0.551. It also gave a relative viability (Crenolanib + Trametinib; first compound 1 µM) of 0.5, a relative viability (Tivantinib + Navitoclax; first compound 0.01 µM) of 1.15 and a relative viability (Tivantinib + Navitoclax; first compound 0.03162 µM) of 0.71. The relative viability (Tivantinib + Navitoclax; first compound 0.1 µM) was 0.837 and the relative viability (Tivantinib + Navitoclax; first compound 0.3162 µM) was 1.01.
For NCI-H1299, the relative viability (Tivantinib + Navitoclax; first compound 0.01 µM) was 1.01, the relative viability (Tivantinib + Navitoclax; first compound 0.03162 µM) was 0.998 and the relative viability (Tivantinib + Navitoclax; first compound 0.1 µM) was 1.06. It also gave a relative viability (Tivantinib + Navitoclax; first compound 0.3162 µM) of 1.05.
In the case of SW 900, the relative viability (Crenolanib + Decitabine; first compound 0.01 µM) is reported as 0.48, the relative viability (Crenolanib + Decitabine; first compound 0.1 µM) is reported as 0.507 and the relative viability (Crenolanib + Decitabine; first compound 0.3162 µM) is reported as 0.517. For the same cell line, the relative viability (Crenolanib + Decitabine; first compound 1 µM) was 0.407, the relative viability (Crenolanib + Phenformin; first compound 0.01 µM) was 0.81 and the relative viability (Crenolanib + Phenformin; first compound 0.03162 µM) was 0.697. The relative viability (Crenolanib + Phenformin; first compound 0.1 µM) was 0.55, the relative viability (Crenolanib + Phenformin; first compound 0.3162 µM) was 0.416 and the relative viability (Crenolanib + Phenformin; first compound 1 µM) was 0.585. The relative viability (Crenolanib + Trametinib; first compound 0.01 µM) was 0.797, the relative viability (Crenolanib + Trametinib; first compound 0.1 µM) was 0.75 and the relative viability (Crenolanib + Trametinib; first compound 0.3162 µM) was 0.784. It also gave a relative viability (Crenolanib + Trametinib; first compound 1 µM) of 1.18.
IA-LM was tested, and the relative viability (Tivantinib + Navitoclax; first compound 0.01 µM) was 0.973, the relative viability (Tivantinib + Navitoclax; first compound 0.03162 µM) was 0.792 and the relative viability (Tivantinib + Navitoclax; first compound 0.1 µM) was 0.743. The relative viability (Tivantinib + Navitoclax; first compound 0.3162 µM) was 0.795.
With NCI-H1648 the relative viability (Crenolanib + Decitabine; first compound 0.01 µM) was 0.521, the relative viability (Crenolanib + Decitabine; first compound 0.1 µM) was 0.477 and the relative viability (Crenolanib + Decitabine; first compound 0.3162 µM) was 0.467. For the same cell line, the relative viability (Crenolanib + Decitabine; first compound 1 µM) was 0.59, the relative viability (Crenolanib + Trametinib; first compound 0.01 µM) was 0.541 and the relative viability (Crenolanib + Trametinib; first compound 0.1 µM) was 0.469. The relative viability (Crenolanib + Trametinib; first compound 0.3162 µM) was 0.457 and the relative viability (Crenolanib + Trametinib; first compound 1 µM) was 0.514.
